Test results: patent US11484539B2, “Compounds and their uses for alleviating menopause-associated symptoms” (Estetra SPRL, priority 2018, dated 2022)

Tested on: post-menopausal women
Test: Weekly severity of moderate to severe VMS, dose-finding study
Type: in vivo
Description: To determine the Minimum Effective Dose (MED), firstly the selection criteria required that patients presented at least 7 moderate to severe VMS/day or at least 50 moderate to severe VMS/week in the week preceding randomization. Secondly, a placebo group was included in a double-blind fashion. Thirdly, the total patient number was such that statistical significance could be obtained between separate arms of the study. Fourthly, the absolute change from baseline in weekly frequency of moderate to severe VMS was taken into account. An analysis of covariance (ANCOVA) was performed based on the untransformed change in weekly frequency of moderate to severe VMS from baseline. Finally, the change in severity from baseline was evaluated. For this, the Severity Scoring System of VMS was documented by the subjects as follows: • a score of Mild (1) for a sensation of heat without sweating; • a score of Moderate (2) for a sensation of heat with sweating/the subject is able to continue activity; and • a score of Severe (3) for a sensation of heat with sweating/which causes cessation of activity.
In addition, a severity score of zero was attributed to the patients who have experienced a 100% VMS relief during a given week.
From these score records, the severity at baseline was calculated by taking into account only moderate and severe VMS, such that the total number of moderate VMS during the 7 days of the baseline week was multiplied by 2 and added to the total number of severe VMS during the 7 days of the baseline week multiplied by 3. This total was then divided by the total number of moderate and severe VMS during the baseline week.
The severity at weeks 4 and 12 was calculated using the following formula for each of these weeks: • the number of mild VMS during 7 days multiplied by 1; • the number of moderate VMS during 7 days multiplied by 2; • the number of severe VMS during 7 days multiplied by 3. and adding the 3 resulting numbers together before dividing this total by the total number of mild, moderate and severe VMS during the 7 days of the week.
This method was used to generate the data included in Example 1 further below, under section A. b) “VMS Severity”.
In order to better analyse the data recorded in this study, treatment groups have been compared using an ANCOVA (analysis of covariance) with respect to the change in severity of moderate to severe VMS from baseline to mild, moderate and severe VMS at week 4 and week 12 for each active treatment versus placebo. For women who experienced 100% VMS relief at week 4 and/or week 12, a value of zero was attributed. The ANCOVA model includes treatment (“trt1”) as a fixed effect and baseline (“base”) as a covariate. • b) Covariate significance

`C[C@]12CC[C@@H]3c4ccc(O)cc4CC[C@H]3[C@@H]1[C@@H](O)[C@@H](O)[C@@H]2O` [E4, 1,3,5 (10)-estratrien-3,15alpha,16alpha,17beta-tetrol] was tested, and the “LS adjusted mean change from baseline in weekly severity of moderate to severe VMS” value (from here on “LS adjusted mean change from baseline”) (2.5 mg E4, week 4) was −0.3411, the “LS adjusted mean relative change from baseline in weekly severity of moderate to severe VMS” value (from here on “LS adjusted mean relative change”) (2.5 mg E4, week 4) was −0.1453 and the “LS adjusted mean change from baseline” value (2.5 mg E4, week 12) was −0.6296. The “LS adjusted mean relative change” value (2.5 mg E4, week 12) was −0.275, the “Mean change from baseline in weekly severity of moderate to severe VMS” value (2.5 mg E4 QD per os, week 1) was −0.1542 and the “Relative change (% from baseline) in weekly severity of moderate to severe VMS, mean” value (shortened to “Relative change (% from baseline)”) (2.5 mg E4 QD per os, week 1) was −7%. For the same compound, the “Mean change from baseline in weekly severity of moderate to severe VMS” value (2.5 mg E4 QD per os, week 2) was −0.2112, the “Relative change (% from baseline)” value (2.5 mg E4 QD per os, week 2) was −9% and the “Mean change from baseline in weekly severity of moderate to severe VMS” value (2.5 mg E4 QD per os, week 3) was −0.3246. For the same compound, the “Relative change (% from baseline)” value (2.5 mg E4 QD per os, week 3) was −14%, the “Mean change from baseline in weekly severity of moderate to severe VMS” value (2.5 mg E4 QD per os, week 4) was −0.3373 and the “Relative change (% from baseline)” value (2.5 mg E4 QD per os, week 4) was −15%. The “Mean change from baseline in weekly severity of moderate to severe VMS” value (2.5 mg E4 QD per os, week 5) was −0.3984, the “Relative change (% from baseline)” value (2.5 mg E4 QD per os, week 5) was −17% and the “Mean change from baseline in weekly severity of moderate to severe VMS” value (2.5 mg E4 QD per os, week 6) was −0.5014. For the same compound, the “Relative change (% from baseline)” value (2.5 mg E4 QD per os, week 6) was −22%, the “Mean change from baseline in weekly severity of moderate to severe VMS” value (2.5 mg E4 QD per os, week 7) was −0.4562 and the “Relative change (% from baseline)” value (2.5 mg E4 QD per os, week 7) was −20%. For the same compound, the “Mean change from baseline in weekly severity of moderate to severe VMS” value (2.5 mg E4 QD per os, week 8) was −0.5359, the “Relative change (% from baseline)” value (2.5 mg E4 QD per os, week 8) was −24% and the “Mean change from baseline in weekly severity of moderate to severe VMS” value (2.5 mg E4 QD per os, week 9) was −0.5465. For the same compound, the “Relative change (% from baseline)” value (2.5 mg E4 QD per os, week 9) was −24%, the “Mean change from baseline in weekly severity of moderate to severe VMS” value (2.5 mg E4 QD per os, week 10) was −0.6052 and the “Relative change (% from baseline)” value (2.5 mg E4 QD per os, week 10) was −26%. The “Mean change from baseline in weekly severity of moderate to severe VMS” value (2.5 mg E4 QD per os, week 11) was −0.5564, the “Relative change (% from baseline)” value (2.5 mg E4 QD per os, week 11) was −25% and the “Mean change from baseline in weekly severity of moderate to severe VMS” value (2.5 mg E4 QD per os, week 12) was −0.6279. The “Relative change (% from baseline)” value (2.5 mg E4 QD per os, week 12) was −28%, the “Difference with placebo, LS adjusted mean, absolute change in weekly severity of moderate to severe VMS” value (2.5 mg E4 vs placebo, week 4) was −0.01329 and the “Difference with placebo, LS adjusted mean, relative change in weekly severity of moderate to severe VMS” value (2.5 mg E4 vs placebo, week 4) was −0.004358. For the same compound, the “Difference with placebo, LS adjusted mean, absolute change in weekly severity of moderate to severe VMS” value (2.5 mg E4 vs placebo, week 12) was 0.02869, the “Difference with placebo, LS adjusted mean, relative change in weekly severity of moderate to severe VMS” value (2.5 mg E4 vs placebo, week 12) was 0.004705 and the “LS adjusted mean change from baseline” value (5 mg E4, week 4) was −0.2386. For the same compound, the “LS adjusted mean relative change” value (5 mg E4, week 4) was −0.09556, the “LS adjusted mean change from baseline” value (5 mg E4, week 12) was −0.4026 and the “LS adjusted mean relative change” value (5 mg E4, week 12) was −0.1649. The “Mean change from baseline in weekly severity of moderate to severe VMS” value (5 mg E4 QD per os, week 1) was −0.098, the “Relative change (% from baseline)” value (5 mg E4 QD per os, week 1) was −4% and the “Mean change from baseline in weekly severity of moderate to severe VMS” value (5 mg E4 QD per os, week 2) was −0.1199. For the same compound, the “Relative change (% from baseline)” value (5 mg E4 QD per os, week 2) was −5%, the “Mean change from baseline in weekly severity of moderate to severe VMS” value (5 mg E4 QD per os, week 3) was −0.1574 and the “Relative change (% from baseline)” value (5 mg E4 QD per os, week 3) was −7%. The “Mean change from baseline in weekly severity of moderate to severe VMS” value (5 mg E4 QD per os, week 4) was −0.2341, the “Relative change (% from baseline)” value (5 mg E4 QD per os, week 4) was −10% and the “Mean change from baseline in weekly severity of moderate to severe VMS” value (5 mg E4 QD per os, week 5) was −0.1683. For the same compound, the “Relative change (% from baseline)” value (5 mg E4 QD per os, week 5) was −7%, the “Mean change from baseline in weekly severity of moderate to severe VMS” value (5 mg E4 QD per os, week 6) was −0.3212 and the “Relative change (% from baseline)” value (5 mg E4 QD per os, week 6) was −14%. For the same compound, the “Mean change from baseline in weekly severity of moderate to severe VMS” value (5 mg E4 QD per os, week 7) was −0.2787, the “Relative change (% from baseline)” value (5 mg E4 QD per os, week 7) was −12% and the “Mean change from baseline in weekly severity of moderate to severe VMS” value (5 mg E4 QD per os, week 8) was −0.3239. For the same compound, the “Relative change (% from baseline)” value (5 mg E4 QD per os, week 8) was −14%, the “Mean change from baseline in weekly severity of moderate to severe VMS” value (5 mg E4 QD per os, week 9) was −0.3249 and the “Relative change (% from baseline)” value (5 mg E4 QD per os, week 9) was −14%. For the same compound, the “Mean change from baseline in weekly severity of moderate to severe VMS” value (5 mg E4 QD per os, week 10) was −0.3667, the “Relative change (% from baseline)” value (5 mg E4 QD per os, week 10) was −15% and the “Mean change from baseline in weekly severity of moderate to severe VMS” value (5 mg E4 QD per os, week 11) was −0.4161. For the same compound, the “Relative change (% from baseline)” value (5 mg E4 QD per os, week 11) was −18%, the “Mean change from baseline in weekly severity of moderate to severe VMS” value (5 mg E4 QD per os, week 12) was −0.4007 and the “Relative change (% from baseline)” value (5 mg E4 QD per os, week 12) was −17%. The “Difference with placebo, LS adjusted mean, absolute change in weekly severity of moderate to severe VMS” value (5 mg E4 vs placebo, week 4) was 0.08925, the “Difference with placebo, LS adjusted mean, relative change in weekly severity of moderate to severe VMS” value (5 mg E4 vs placebo, week 4) was 0.04543 and the “Difference with placebo, LS adjusted mean, absolute change in weekly severity of moderate to severe VMS” value (5 mg E4 vs placebo, week 12) was 0.2557.
